Test results: PubChem BioAssay AID1963985 (Molecular Pharmacology Branch, DTP, NCI, 2024)
Values belong to the compound of their own block, whether it stands above or below them.

System: 252836-082-R-J2-PDC tumor spheroids, viability
Assay: Anticancer human tumor 252836-082-R-J2-PDC patient-derived head and neck squamous cell carcinoma cell line growth inhibition [PI3K]
Details: spheroids with HUVEC and MSC; for IC50: curve of first compound; for viability, T/C: stronger effect = lower value
Outline: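 Complex 3D spheroids (cancer cells + endothelial HUVEC + mesenchymal stem cells); drug pairs of targeted agent x inavolisib/alpelisib/duvelisib/copanlisib; half-log series from ~Cmax, max 10 microM if Cmax unknown; endpoint viability.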

[1] = second compound 0.00316 µM, first compound 0.0316 µM
[2] = second compound 0.00316 µM, first compound 0.1 µM
[3] = second compound 0.00316 µM, first compound 0.316 µM
[4] = second compound 0.00316 µM, first compound 1 µM
[5] = second compound 0.00316 µM, first compound 3.16 µM
[6] = second compound 0.00316 µM, first compound 10 µM
[7] = second compound 0.01 µM, first compound 0.0316 µM
[8] = second compound 0.01 µM, first compound 0.1 µM
[9] = second compound 0.01 µM, first compound 0.316 µM
[10] = second compound 0.01 µM, first compound 1 µM
[11] = second compound 0.01 µM, first compound 3.16 µM
[12] = second compound 0.01 µM, first compound 10 µM
[13] = second compound 0.0316 µM, first compound 0.0316 µM
[14] = second compound 0.0316 µM, first compound 0.1 µM
[15] = second compound 0.0316 µM, first compound 0.316 µM
[16] = second compound 0.0316 µM, first compound 1 µM
[17] = second compound 0.0316 µM, first compound 3.16 µM
[18] = second compound 0.0316 µM, first compound 10 µM
[19] = second compound 0.1 µM, first compound 0.0316 µM
[20] = second compound 0.1 µM, first compound 0.1 µM
[21] = second compound 0.1 µM, first compound 0.316 µM
[22] = second compound 0.1 µM, first compound 1 µM
[23] = second compound 0.1 µM, first compound 3.16 µM
[24] = second compound 0.1 µM, first compound 10 µM
[25] = second compound 0.316 µM, first compound 0.0316 µM
[26] = second compound 0.316 µM, first compound 0.1 µM
[27] = second compound 0.316 µM, first compound 0.316 µM
[28] = second compound 0.316 µM, first compound 1 µM
[29] = second compound 0.316 µM, first compound 3.16 µM
[30] = second compound 0.316 µM, first compound 10 µM
[31] = second compound 1 µM, first compound 0.0316 µM
[32] = second compound 1 µM, first compound 0.1 µM
[33] = second compound 1 µM, first compound 0.316 µM
[34] = second compound 1 µM, first compound 1 µM
[35] = second compound 1 µM, first compound 3.16 µM
[36] = second compound 1 µM, first compound 10 µM
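Also: spheroids exposed to agents for seven days before readout.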
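For viability, T/C in this document: percent of vehicle DMSO control viability so 100% = untreated growth.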

IC50 (second compound 0.00316 µM): > 10000 nM | IC50 (second compound 0.01 µM): > 10000 nM | IC50 (second compound 0.0316 µM): 3800 nM | IC50 (second compound 0.1 µM): < 31.6 nM | IC50 (second compound 0.316 µM): < 31.6 nM | IC50 (second compound 1 µM): < 31.6 nM
SMILES: C#Cc1c(F)ccc2cc(O)cc(-c3ncc4c(N5CC6CCC(C5)N6)nc(OCC56CCCN5CC(F)C6)nc4c3F)c12 (stereo not drawn) + COc1c(OCCCN2CCOCC2)ccc2c3n(c(=NC(=O)c4cnc(N)nc4)nc12)CCN3
viability, T/C [1]: 75.2% | viability, T/C [2]: 79.9% | viability, T/C [3]: 105% | viability, T/C [4]: 76.8% | viability, T/C [5]: 72.5% | viability, T/C [6]: 67% | viability, T/C [7]: 76.5% | viability, T/C [8]: 76.8% | viability, T/C [9]: 72.2% | viability, T/C [10]: 70% | viability, T/C [11]: 60.2% | viability, T/C [12]: 53.2% | viability, T/C [13]: 53.5% | viability, T/C [14]: 62% | viability, T/C [15]: 53.7% | viability, T/C [16]: 57.2% | viability, T/C [17]: 52.7% | viability, T/C [18]: 34.9% | viability, T/C [19]: 40.4% | viability, T/C [20]: 37.9% | viability, T/C [21]: 36.5% | viability, T/C [22]: 32.8% | viability, T/C [23]: 37.6% | viability, T/C [24]: 18.4% | viability, T/C [25]: 16.9% | viability, T/C [26]: 15.7% | viability, T/C [27]: 13.2% | viability, T/C [28]: 15.3% | viability, T/C [29]: 12.9% | viability, T/C [30]: 4.25% | viability, T/C [31]: 4.39% | viability, T/C [32]: 4.93% | viability, T/C [33]: 4.55% | viability, T/C [34]: 4.71% | viability, T/C [35]: 2.91% | viability, T/C [36]: 0.25%

IC50 (second compound 0.00316 µM): > 10000 nM | IC50 (second compound 0.01 µM): > 10000 nM | IC50 (second compound 0.0316 µM): > 10000 nM | IC50 (second compound 0.1 µM): < 31.6 nM | IC50 (second compound 0.316 µM): < 31.6 nM | IC50 (second compound 1 µM): < 31.6 nM
SMILES: C=CC(=O)N1CCN(c2nc(=O)n(-c3c(C)ccnc3C(C)C)c3nc(-c4c(O)cccc4F)c(F)cc23)C(C)C1 (stereo not drawn) + COc1c(OCCCN2CCOCC2)ccc2c3n(c(=NC(=O)c4cnc(N)nc4)nc12)CCN3
viability, T/C [1]: 92.7% | viability, T/C [2]: 94.5% | viability, T/C [3]: 96.1% | viability, T/C [4]: 99.7% | viability, T/C [5]: 118% | viability, T/C [6]: 94.9% | viability, T/C [7]: 74.4% | viability, T/C [8]: 73.8% | viability, T/C [9]: 89.2% | viability, T/C [10]: 88.7% | viability, T/C [11]: 98.2% | viability, T/C [12]: 82.2% | viability, T/C [13]: 63% | viability, T/C [14]: 56.9% | viability, T/C [15]: 55.3% | viability, T/C [16]: 75.8% | viability, T/C [17]: 77.4% | viability, T/C [18]: 73.3% | viability, T/C [19]: 36% | viability, T/C [20]: 34.6% | viability, T/C [21]: 34.9% | viability, T/C [22]: 45.1% | viability, T/C [23]: 45.1% | viability, T/C [24]: 42.8% | viability, T/C [25]: 19.2% | viability, T/C [26]: 17.3% | viability, T/C [27]: 22.8% | viability, T/C [28]: 17.3% | viability, T/C [29]: 20.8% | viability, T/C [30]: 15.9% | viability, T/C [31]: 5.1% | viability, T/C [32]: 5.86% | viability, T/C [33]: 5.59% | viability, T/C [34]: 5.93% | viability, T/C [35]: 7.35% | viability, T/C [36]: 3.61%

IC50 (second compound 0.00316 µM): > 10000 nM | IC50 (second compound 0.01 µM): > 10000 nM | IC50 (second compound 0.0316 µM): > 10000 nM | IC50 (second compound 0.1 µM): < 31.6 nM | IC50 (second compound 0.316 µM): < 31.6 nM | IC50 (second compound 1 µM): < 31.6 nM
SMILES: CC(Cn1ccc(-c2ccc(C#N)c(Cl)c2)n1)NC(=O)c1cc(C(C)O)[nH]n1 (stereo not drawn) + COc1c(OCCCN2CCOCC2)ccc2c3n(c(=NC(=O)c4cnc(N)nc4)nc12)CCN3
viability, T/C [1]: 102% | viability, T/C [2]: 90.5% | viability, T/C [3]: 101% | viability, T/C [4]: 94.4% | viability, T/C [5]: 91.4% | viability, T/C [6]: 84.9% | viability, T/C [7]: 81.7% | viability, T/C [8]: 72.4% | viability, T/C [9]: 87.2% | viability, T/C [10]: 93.3% | viability, T/C [11]: 93% | viability, T/C [12]: 68.9% | viability, T/C [13]: 65.3% | viability, T/C [14]: 62.8% | viability, T/C [15]: 62.6% | viability, T/C [16]: 63.9% | viability, T/C [17]: 68.3% | viability, T/C [18]: 56.1% | viability, T/C [19]: 35.3% | viability, T/C [20]: 43.5% | viability, T/C [21]: 36.6% | viability, T/C [22]: 45.3% | viability, T/C [23]: 35.6% | viability, T/C [24]: 41.4% | viability, T/C [25]: 15.6% | viability, T/C [26]: 15.8% | viability, T/C [27]: 18.3% | viability, T/C [28]: 20.3% | viability, T/C [29]: 16.3% | viability, T/C [30]: 16.5% | viability, T/C [31]: 5.58% | viability, T/C [32]: 5.76% | viability, T/C [33]: 4.24% | viability, T/C [34]: 4.31% | viability, T/C [35]: 6.92% | viability, T/C [36]: 5.37%

IC50 (second compound 0.00316 µM): < 31.6 nM | IC50 (second compound 0.01 µM): < 31.6 nM | IC50 (second compound 0.0316 µM): < 31.6 nM | IC50 (second compound 0.1 µM): < 31.6 nM | IC50 (second compound 0.316 µM): < 31.6 nM | IC50 (second compound 1 µM): < 31.6 nM
SMILES: CC1(C)CCC(Nc2ncc(C(F)(F)F)c(-c3c[nH]c4c(P(C)(C)=O)c(C#N)ccc34)n2)CN1 (stereo not drawn) + COc1c(OCCCN2CCOCC2)ccc2c3n(c(=NC(=O)c4cnc(N)nc4)nc12)CCN3
viability, T/C [1]: 30% | viability, T/C [2]: 25.4% | viability, T/C [3]: 25.2% | viability, T/C [4]: 28.7% | viability, T/C [5]: 34.5% | viability, T/C [6]: 4.59% | viability, T/C [7]: 24.9% | viability, T/C [8]: 24.2% | viability, T/C [9]: 25.5% | viability, T/C [10]: 22.8% | viability, T/C [11]: 26.4% | viability, T/C [12]: 3.95% | viability, T/C [13]: 22% | viability, T/C [14]: 22.4% | viability, T/C [15]: 22.7% | viability, T/C [16]: 19.3% | viability, T/C [17]: 22.3% | viability, T/C [18]: 2.09% | viability, T/C [19]: 15.1% | viability, T/C [20]: 15.4% | viability, T/C [21]: 17.4% | viability, T/C [22]: 14.4% | viability, T/C [23]: 18.4% | viability, T/C [24]: 1.25% | viability, T/C [25]: 8.82% | viability, T/C [26]: 8.24% | viability, T/C [27]: 8.82% | viability, T/C [28]: 8.38% | viability, T/C [29]: 8.08% | viability, T/C [30]: 0.63% | viability, T/C [31]: 2.41% | viability, T/C [32]: 2.58% | viability, T/C [33]: 2.51% | viability, T/C [34]: 3.28% | viability, T/C [35]: 2.74% | viability, T/C [36]: 0.56%
